Like-named read-outs stand apart in the source and are kept apart here. Marks after values point to notes of the source that are not given here. Starred links: 1 amine or outer side, 2 acyl side, 3 side chain; linkers in the order of their positions; H or OH if unused. Non-standard residues stand in square brackets, D forms with d. Residues, ends and D or L forms follow the SMILES beside them. Groups on a side chain read outwards from the residue. *: point of attachment. C20 diacid = O=C(O)CCCCCCCCCCCCCCCCCCC(=O)*; γGlu = O=C(O)[C@H](CCC(=O)[*:2])N[*:1]; Nle = CCCC[C@H](N)C(=O)O; AEEA = NCCOCCOCC(=O)O; Aib = CC(C)(N)C(=O)O
Tests used:
[1] = PK in rats; type: in vivo; design: T½ / MRT: unit not given here; conditions: Rat
Experimental: Lean male Sprague Dawley rats (RJHan:SD) were obtained from JanVier (JanVier Labs, France) at 7 weeks of age. The animals were pair housed until randomization under a 12/12 h dark-light cycle, light off at 3 PM. Room temperature was controlled to 22°C ± 1°C, with 60 % ± 20% humidity.
Animals had ad libitum access to regular rodent chow (Altromin 1324, Brogaarden, Denmark) and tap water.
After 2 weeks of acclimatization, the animals were single housed and randomized into treatment groups (n = 3 per group) based on body weight on study day -3. On study day 1, animals were dosed 50 nmol/kg IV and SC in combination of two peptides. Plasma samples were collected for PK analysis at times 0.17, 1, 3, 6, 24, 30, 48, 72 and 96 hours post dosing. Plasma samples were analyzed using LC-MSMS and PK parameters were estimated by Non-Compartmental Analysis (NCA).

[2] = pH 7.5
[3] = Effect on acute food intake in mice; type: in vivo; conditions: single subcutaneous dose
Experimental: Male NMRI mice were obtained from JanVier (JanVier Labs, France) at 5 weeks of age. The animals were group-housed 4 mice pr. cage under a 12/12 h dark-light cycle, light off at 1 PM. Room temperature was controlled to 22°C ± 1°C, with 60 % ± 20% humidity. Animals had ad libitum access to regular rodent chow (Altromin 1324, Brogaarden, Denmark) and tap water.
Animals were transferred 5-7 days before the start of the study to a real-time food intake monitoring system, HM-2 system (MBRose, Denmark) to allow acclimatization to experimental conditions. As the animals were uniquely identified with microchips, each individual animal was identified by its microchip upon entry and exit from the food channel. Randomization of the mice for each study group (n=7-8) was based on body weight measured the day before the start of the study. A vehicle-treated group was included in each experiment. Six hours before the start of the dark phase, animals were fasted. One hour before the dark phase, animals were dosed once subcutaneously with test peptide. Food intake was reported hourly for a period of 72 hours. The percentage of food intake reduction was normalized to average food intake from the vehicle group. Statistical significance was evaluated using One-way analysis of variance with Dunnett's multiple comparison test. P < 0.05 was considered statistically significant.
Selected compounds were tested according to the general procedure on acute food intake in mice to determine the effect of a single subcutaneous dose on food intake in mice over 3 days.

[4] = molecular target: T1, hCRHR2 (Homo sapiens, UniProt Q13324); experiment: HTRF cAMP assay, determination of hCRHR2 potency (peptide libraries 5 conc., purified peptides 11 conc.); type: cell-based; conditions: for EC50: read-out: hCRHR2 EC50
T1 sequence (Q13324 1-411): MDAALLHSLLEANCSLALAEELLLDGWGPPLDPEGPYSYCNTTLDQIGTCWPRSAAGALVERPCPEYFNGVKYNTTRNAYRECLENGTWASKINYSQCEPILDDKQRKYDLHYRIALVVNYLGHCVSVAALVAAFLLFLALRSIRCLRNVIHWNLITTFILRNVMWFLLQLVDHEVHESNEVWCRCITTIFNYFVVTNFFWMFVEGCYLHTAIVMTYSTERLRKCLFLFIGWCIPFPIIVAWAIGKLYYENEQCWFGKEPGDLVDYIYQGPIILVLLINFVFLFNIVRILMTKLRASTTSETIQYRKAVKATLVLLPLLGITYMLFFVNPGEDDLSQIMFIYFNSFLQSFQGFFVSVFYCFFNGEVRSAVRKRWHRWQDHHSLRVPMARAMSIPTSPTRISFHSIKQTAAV
In short: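 Agonist peptides are added to suspended, freshly thawed CHO-K1 cells that stably carry the human receptor. Intracellular cAMP competes with d2-cAMP for a cryptate-tagged antibody, lowering the FRET signal. A variable-slope sigmoid curve is fitted to obtain EC50.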

[5] = Thioflavin T fibril formation assay of purified peptides; type: physicochemical; design: key: Amyloid fibril formation detected by an increase in ThT fluorescence was denoted with "Yes"; samples without increasing ThT fluorescence hence not forming amyloid fibrils were denoted "No"
In short: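 Compounds at 200 µM in 50 mM phosphate buffer at the stated pH values, or at 200 µM in semaglutide drug product adjusted to pH 7.4, with 4 µM ThT final. Fibrillation followed as ThT fluorescence (ex 450/em 480 nm) over 96 h at 40°C, with 5 min shaking at 700 rpm alternating with 5 min rest; triplicates.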

| SMILES | MRT [1] | T½ [1] | Solubility pH 7.5, target conc. =10 mg/mL (measured mg/mL) [2] [mg/mL] | % FI compared to vehicle, 24 h post-dosing ([3]; 30 nmol/kg) | % FI compared to vehicle, 24 h post-dosing ([3]; 100 nmol/kg) | % FI compared to vehicle, 24 h post-dosing ([3]; 300 nmol/kg) | Selectivity ratio (hCRHR1/ hCRHR2) ([4]; hCRHR1-EC50/hCRHR2-EC50) | EC50 ([4]; purified peptides, CHO-K1 cells stably expressing hCRHR2, cAMP HTRF) [nM] | Fibrillation (pH 7.5) ([5]; pH 7.5, ThT assay) | Selectivity ratio (hCRHR1/ hCRHR2) ([4]; Table 5) | EC50 ([4]; Table 5, purified peptides) [nM] | Fibrillation (pH 7.5) ([5]; pH 7.5) |
| --- | --- | --- | --- | --- | --- | --- | --- | --- | --- | --- | --- | --- |
| CC[C@H](C)[C@H](N)C(=O)N[C@H](C(=O)N[C@@H](CC(C)C)C(=O)N[C@@H](CO)C(=O)N[C@@H](CC(C)C)C(=O)N[C@@H](CC(=O)O)C(=O)N[C@H](C(=O)N1CCC[C@H]1C(=O)N[C@H](C(=O)NCC(=O)N[C@@H](CC(C)C)C(=O)N[C@@H](CC(C)C)C(=O)N[C@@H](CCC(N)=O)C(=O)N[C@H](C(=O)N[C@@H](CC(C)C)C(=O)N[C@@H](CC(C)C)C(=O)N[C@@H](CCC(=O)O)C(=O)N[C@@H](CCC(N)=O)C(=O)N[C@@H](C)C(=O)N[C@@H](CCCNC(=N)N)C(=O)N[C@@H](C)C(=O)N[C@@H](CCCNC(=N)N)C(=O)N[C@@H](C)C(=O)N[C@@H](C)C(=O)N[C@@H](CCCNC(=N)N)C(=O)N[C@@H](CCC(=O)O)C(=O)N[C@@H](CCC(N)=O)C(=O)N[C@@H](C)C(=O)N[C@@H](CCCCNC(=O)COCCOCCNC(=O)COCCOCCNC(=O)CC[C@H](NC(=O)CC[C@H](NC(=O)CCCCCCCCCCCCCCCCCCC(=O)O)C(=O)O)C(=O)O)C(=O)N[C@@H](CCC(=O)O)C(=O)N[C@@H](CC(N)=O)C(=O)N[C@@H](C)C(=O)N[C@@H](CCC(=O)O)C(=O)N[C@H](C(=O)N[C@@H](CC(C)C)C(=O)N[C@@H](C)C(=O)N[C@@H](CCC(=O)O)C(=O)N[C@H](C(N)=O)C(C)C)[C@@H](C)CC)[C@@H](C)CC)[C@@H](C)CC)C(C)C)C(C)C [SEQ ID NO: 17] (H-IVLSLDVPIGLLQILLEQARARAAREQAK([AEEA-AEEA-γGlu-γGlu-C20 diacid])ENAEILAEV-NH2) | 7.6 | 7.1 | 9.2 | 78.97* % | 48.64*** % | 19.52*** % | >2381 | 2.1 | No | – | – | – |
| CCCC[C@H](NC(=O)[C@@H](NC(=O)[C@H](CCC(=O)O)NC(=O)[C@H](C)NC(=O)[C@H](CC(N)=O)NC(=O)C(C)(C)NC(=O)[C@H](CCCCNC(=O)COCCOCCNC(=O)COCCOCCNC(=O)CC[C@H](NC(=O)CC[C@H](NC(=O)CCCCCCCCCCCCCCCCCCC(=O)O)C(=O)O)C(=O)O)NC(=O)[C@H](C)NC(=O)[C@H](CCC(N)=O)NC(=O)[C@H](CCC(=O)O)NC(=O)[C@H](CCCNC(=N)N)NC(=O)[C@H](C)NC(=O)[C@H](C)NC(=O)[C@H](CCCNC(=N)N)NC(=O)[C@H](C)NC(=O)[C@H](CCCNC(=N)N)NC(=O)[C@H](C)NC(=O)[C@H](CCC(N)=O)NC(=O)[C@H](CO)NC(=O)[C@H](CC(C)C)NC(=O)[C@H](CC(C)C)NC(=O)[C@@H](NC(=O)[C@H](CCC(N)=O)NC(=O)[C@H](CC(C)C)NC(=O)[C@H](CC(C)C)NC(=O)CNC(=O)[C@@H](NC(=O)[C@@H]1CCCN1C(=O)[C@@H](NC(=O)[C@H](CC(=O)O)NC(=O)[C@H](CC(C)C)NC(=O)[C@H](CO)NC(=O)[C@H](CC(C)C)NC(=O)[C@@H](NC(=O)[C@@H](N)[C@@H](C)CC)C(C)C)C(C)C)[C@@H](C)CC)[C@@H](C)CC)[C@@H](C)CC)C(=O)N[C@@H](C)C(=O)N[C@@H](CCC(=O)O)C(=O)N[C@H](C(N)=O)C(C)C [compound 237] (H-IVLSLDVPIGLLQILLSQARARAAREQAK([AEEA-AEEA-γGlu-γGlu-C20 diacid])[Aib]NAEI[Nle]AEV-NH2) | 5.1 | 4.1 | 10 | 51.49*** % | 16.66*** % | 13.2*** % | – | – | – | >6494 | 0.77 | No |
